The results in this text go back to publication PMC5691136, “The role of CXCR3/LRP1 cross-talk in the invasion of primary brain tumors” (Nature Communications, 2017).

A word on the Kd: it is the equilibrium constant for the complex coming apart. The low end stands for a tighter complex, the high end for a looser complex.

The test concerns the target T1, CXCR3-A (Homo sapiens, UniProt P49682).
T1 construct: full-length human CXCR3-A (isoform A) in membrane fragments of transfected U87 and HEK-293 cells
T1 sequence (P49682 1-368): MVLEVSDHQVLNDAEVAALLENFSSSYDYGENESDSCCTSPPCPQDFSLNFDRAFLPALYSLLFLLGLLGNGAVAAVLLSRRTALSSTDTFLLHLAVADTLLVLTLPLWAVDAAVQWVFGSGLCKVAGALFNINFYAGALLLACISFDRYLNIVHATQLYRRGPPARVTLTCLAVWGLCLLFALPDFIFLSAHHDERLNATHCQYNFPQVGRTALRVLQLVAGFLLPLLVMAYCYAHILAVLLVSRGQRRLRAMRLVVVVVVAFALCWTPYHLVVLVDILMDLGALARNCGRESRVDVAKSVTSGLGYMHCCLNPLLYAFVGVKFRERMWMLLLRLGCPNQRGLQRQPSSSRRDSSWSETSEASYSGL
As to the kind of experiment: plasmon waveguide resonance on captured cell membrane fragments; no spectral change with U87-CTRL fragments. The format is binding.

`NC(N)=NCCC[C@H](NC(=O)[C@@H]1Cc2ccccc2CN1C(=O)CCC(=O)c1ccccc1)C(=O)NCC1CCCCC1` [PS372424] yielded a Kd of 0.036 ± 0.009 µM.
